System: Spodoptera littoralis
Experiment: Antifeedant activity against Spodoptera littoralis using glass-fibre disks at 100 ppm measured after 18 hr by binary choice feeding bioassay relative to control
Assay type: functional

| SMILES | AFI |
| --- | --- |
| C[C@@H]1C[C@@H](O)[C@@]23COC(=O)C2=CCC[C@@H]3[C@@]12C[C@@H](c1ccoc1)OC2=O [6BETA-HYDROXYTEUSCORDIN] | 73.1% |
| C[C@@H]1C[C@@H](O)[C@@]2(CO)C(CO)=C[C@@H](O)C[C@@H]2[C@@]12C[C@@H](c1ccoc1)OC2=O [19-DEACETYLTEUSCORODOL] | -54.5% |
| CC(=O)OC[C@@]12CCC[C@@H]3[C@@]4(C[C@@H](c5ccoc5)OC4=O)[C@H](C)C[C@@H](OC(C)=O)[C@]31CO2 [DIACETYLMONTANIN D] | 34.6% |
| C[C@@H]1C[C@@H](O)[C@@]23COC(=O)C2C[C@@H](O)C[C@@H]3[C@@]12C[C@@H](c1ccoc1)OC2=O (some centres undefined) [DIHYDROTEUGIN] | -1.2% |
| C[C@@H]1C[C@@H]2OC(=O)C3=C2[C@H](CC[C@@H]3O)[C@@]12C[C@@H](c1ccoc1)OC2=O [ISOTEUFLIFIN] | 11% |
| C[C@@H]1C[C@@H](O)[C@@]23CO[C@]2(CO)CCC[C@@H]3[C@@]12C[C@@H](c1ccoc1)OC2=O [MONTANIN D] | 82.1% |
| C[C@@H]1C[C@@H]2OC(=O)C3=C2[C@H](CCC3)[C@@]12C[C@@H](c1ccoc1)OC2=O [TEUCVIN] | 52.2% |
| C[C@@H]1C[C@@H](O)[C@@]23COC(=O)C2=C[C@@H](O)C[C@@H]3[C@@]12C[C@@H](c1ccoc1)OC2=O [TEUGIN] | 11.1% |
| C[C@@H]1CC(=O)[C@@]23COC(=O)C2=CCC[C@@H]3[C@@]12C[C@@H](c1ccoc1)OC2=O [TEUSCORDINON] | 55.7% |
